The target in the assay is T1, Nanoluciferase-BRD9 fusion protein (3×FLAG-NLuc-BRD9) in SYO-1 cells (Homo sapiens, UniProt Q9H8M2).
T1 construct: expressed in transfected cells; host or cells: SYO-1
T1 sequence (Q9H8M2 1-597): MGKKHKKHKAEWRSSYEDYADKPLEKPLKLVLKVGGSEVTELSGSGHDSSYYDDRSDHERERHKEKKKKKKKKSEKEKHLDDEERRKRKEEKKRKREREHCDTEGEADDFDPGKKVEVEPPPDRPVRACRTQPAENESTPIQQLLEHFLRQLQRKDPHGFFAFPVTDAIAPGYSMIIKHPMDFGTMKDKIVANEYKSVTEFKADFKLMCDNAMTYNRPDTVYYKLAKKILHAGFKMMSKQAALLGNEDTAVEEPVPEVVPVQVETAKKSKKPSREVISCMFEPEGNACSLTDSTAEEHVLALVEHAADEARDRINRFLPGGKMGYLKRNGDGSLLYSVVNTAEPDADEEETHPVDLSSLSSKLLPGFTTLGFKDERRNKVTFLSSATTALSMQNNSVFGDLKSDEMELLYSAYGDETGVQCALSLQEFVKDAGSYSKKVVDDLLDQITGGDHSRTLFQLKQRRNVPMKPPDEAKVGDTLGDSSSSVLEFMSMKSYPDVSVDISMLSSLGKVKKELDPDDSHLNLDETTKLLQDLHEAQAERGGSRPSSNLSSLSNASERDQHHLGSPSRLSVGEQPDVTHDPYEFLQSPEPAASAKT
Description: SYO1 BRD9 NanoLuc degradation assay. Format: cell-based. The settings on record: Table 6C; SYO-1 cells expressing 3×FLAG-NLuc-BRD9, 6 hours incubation, 1 μM top dose; read-out: SYO1 BRD9-NanoLuc degradation IC50. In a few lines:
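Stable SYO-1 line expressing 3×FLAG-NLuc-BRD9 was seeded at 8000 cells/well, then treated next day for 6 h with 10-point 3-fold dilutions (top 1 μM final). Nano-Glo luminescence was read. % inhibition was normalised to DMSO (high control) and 1 μM reference BRD9 degrader (low control).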
Regarding `COc1cc(-c2cn(C)c(=O)c3ccsc23)cc(OC)c1CN1CCC2CCN(c3ccc4c(c3)CN(C3CCC(=O)NC3=O)C4=O)CC2C1` (stereo not shown) [Compound D121], the DC50 was below 10 nM.
On to `COc1cc(-c2cn(C)c(=O)c3ccsc23)cc(OC)c1C1CCN(c2ccc3c(c2)C(=O)N(C2CCC(=O)NC2=O)C3)C1` (stereo not shown) [Compound D122], for which the DC50 was below 10 nM.
For the compound `COc1cc(-c2cn(C)c(=O)c3ccsc23)cc(OC)c1C1CCN(c2ccc3c(c2)C(=O)N(C2CCC(=O)NC2=O)C3)CC1` (stereo not shown) [Compound D123], the DC50 was below 10 nM.
As for `COc1cc(-c2cn(C)c(=O)c3cc(C(=O)NC4CCN(c5cccc(CN6CCC(=O)NC6=O)c5)CC4)sc23)cc(OC)c1CN(C)C` [Compound D124], the DC50 was below 10 nM.
In the case of `Cn1cc(-c2ccc(-c3ccc4c(c3)C(=O)N(C3CCC(=O)NC3=O)C4)c(C(F)(F)F)c2)c2sccc2c1=O` (stereo not shown) [Compound D125], the DC50 was below 10 nM.
For the compound `COc1cc(-c2cn(C)c(=O)c3cc(C(=O)NC4CCN(C5CCN(c6ccc7c(c6)C(=O)N(C6CCC(=O)NC6=O)C7)CC5(F)F)CC4)sc23)cc(OC)c1CN(C)C` (stereo not shown) [Compound D126], the DC50 is below 10 nM.
Consider `COc1cc(-c2cn(C)c(=O)c3cc(C(=O)NC4CCN(C5CCN(c6ccc7c(c6)CN(C6CCC(=O)NC6=O)C7=O)CC5(F)F)CC4)sc23)cc(OC)c1CN(C)C` (stereo not shown) [Compound D127], for which the DC50 was below 10 nM.
The same measure for `Cn1cc(-c2cccc(C(F)(F)F)c2)c2sc(C(=O)NC3CCN(c4ccc5c(c4)C(=O)N(C4CCC(=O)NC4=O)C5)CC3)cc2c1=O` (stereo not shown) [Compound D128]: below 10 nM.
With `CCc1cc(OC)cc(-c2cn(C)c(=O)c3cc(C(=O)NC4CCN(c5ccc6c(c5)C(=O)N(C5CCC(=O)NC5=O)C6)CC4(F)F)sc23)c1` (stereo not shown) [Compound D129], the DC50 was below 10 nM.
As to `COc1cc(-c2cn(C)c(=O)c3cc(C(=O)NC4CCN(CCN5CCN(c6ccc7c(c6)C(=O)N(C6CCC(=O)NC6=O)C7)CC5)CC4)sc23)cc(OC)c1CN(C)C` (stereo not shown) [Compound D130], the DC50 is below 10 nM.
`COc1cc(OC)cc(-c2cn(C)c(=O)c3cc(C(=O)NC4CCN(c5ccc6c(c5)C(=O)N(C5CCC(=O)NC5=O)C6)CC4(F)F)sc23)c1` (stereo not shown) [Compound D131]: the DC50 is below 10 nM.
The same measure for `COc1cc(-c2cn(C)c(=O)c3cc(C)sc23)cc(OC)c1CN1CCC2(CC1)CN(c1ccc3c(c1)C(=O)N(C1CCC(=O)NC1=O)C3)C2` (stereo not shown) [Compound D132]: below 10 nM; for `COc1cc(-c2cn(C)c(=O)c3cc(C(=O)N(C)C)sc23)cc(OC)c1CN1CCC2(CC1)CN(c1ccc3c(c1)C(=O)N(C1CCC(=O)NC1=O)C3)C2` (stereo not shown) [Compound D133]: below 10 nM.
Turning to `COc1cc(-c2cn(C)c(=O)c3cc(C(=O)N[C@@H]4CCN(C5CCN(c6ccc7c(c6)C(=O)N([C@@H]6CCC(=O)NC6=O)C7)CC5)CC4(F)F)sc23)cc(OC)c1CN(C)C` [Compound D134], the DC50 is below 10 nM.
The result for `COc1cc(-c2cn(C)c(=O)c3cc(C(=O)N[C@@H]4CCN(C5CCN(c6ccc7c(c6)C(=O)N([C@@H]6CCC(=O)NC6=O)C7)CC5)CC4(F)F)sc23)cc(OC)c1CN(C)C` [Compound D135] reads below 10 nM; that for `COc1cc(-c2cn(C)c(=O)c3ccsc23)cc(OC)c1CN1[C@H](C)CN(c2ccc3c(c2)CN(C2CCC(=O)NC2=O)C3=O)C[C@H]1C` (stereo partly shown) [Compound D136], below 10 nM.
As to `COc1cc(-c2cn(C)c(=O)c3cc(C(=O)NC4CCN(C5CC6(C5)CN(c5ccc7c(c5)CN(C5CCC(=O)NC5=O)C7=O)C6)CC4(F)F)sc23)cc(OC)c1CN(C)C` (stereo not shown) [Compound D137], the DC50 is above 100 nM.
The result for `CNC(=O)c1cc2c(=O)n(C)cc(-c3cc(OC)c(CN4CCC5(CC4)CN(c4ccc6c(c4)C(=O)N(C4CCC(=O)NC4=O)C6)C5)c(OC)c3)c2s1` (stereo not shown) [Compound D138] reads below 10 nM.
Turning to `COc1cc(-c2cn(C)c(=O)c3cc(C#N)sc23)cc(OC)c1CN1CCC2(CC1)CN(c1ccc3c(c1)C(=O)N(C1CCC(=O)NC1=O)C3)C2` (stereo not shown) [Compound D139], the DC50 was below 10 nM.
Turning to `COc1cc(-c2cn(C)c(=O)c3cc(C(=O)N[C@H]4CCN(C5CCN(c6ccc7c(c6)C(=O)N([C@@H]6CCC(=O)NC6=O)C7)CC5)CC4(F)F)sc23)cc(OC)c1CN(C)C` [Compound D140], the DC50 was below 10 nM.
Turning to `COc1cc(-c2cn(C)c(=O)c3cc(C(=O)N[C@H]4CCN(C5CCN(c6ccc7c(c6)C(=O)N([C@H]6CCC(=O)NC6=O)C7)CC5)CC4(F)F)sc23)cc(OC)c1CN(C)C` [Compound D141], the DC50 was below 10 nM.
`COc1cc(-c2cn(C)c(=O)c3cc(C(=O)NC4CCN(C5CCN(c6ccc7c(c6)C(=O)N(C6CCC(=O)N(C)C6=O)C7)CC5)CC4(F)F)sc23)cc(OC)c1CN(C)C` (stereo not shown) [Compound D142]: the DC50 was above 1000 nM.
For `COc1cc(-c2cn(C)c(=O)c3cc(C(=O)NC4CCN(c5ccc6c(c5)C(=O)N(C5CCC(=O)N(C)C5=O)C6)CC4(F)F)sc23)cc(OC)c1CN(C)C` (stereo not shown) [Compound D143], the DC50 was above 1000 nM.
Consider `COc1cc(-c2cn(C)c(=O)c3ccsc23)cc(OC)c1CN1[C@H](C)CN(c2ccc3c(c2)C(=O)N(C2CCC(=O)NC2=O)C3)C[C@H]1C` (stereo partly shown) [Compound D144], for which the DC50 was below 10 nM.
As for `COc1cc(-c2cn(C)c(=O)c3cc(C(=O)NC4CCN(C5CC6(C5)CN(c5ccc7c(c5)C(=O)N(C5CCC(=O)NC5=O)C7)C6)CC4(F)F)sc23)cc(OC)c1CN(C)C` (stereo not shown) [Compound D145], the DC50 was above 100 nM.
The same measure for `COc1cc(-c2cn(C)c(=O)c3cc(C(=O)NC4CCN(c5ccc6c(c5)C(=O)N(C5CCC(=O)NC5=O)C6)CC4)sc23)cc(OC)c1CN(C)C` (stereo not shown) [Compound D146]: below 10 nM; for `[2H]C([2H])([2H])n1cc(-c2cc(OC)c(CN3CCN(c4ccc5c(c4)C(=O)N(C4CCC(=O)NC4=O)C5)CC3)c(OC)c2)c2sccc2c1=O` (stereo not shown) [Compound D147]: below 10 nM.
As for `COc1cc(-c2cn(C)c(=O)c3c(C)c(C(=O)NC4CCN(C5CCN(c6ccc7c(c6)C(=O)N(C6CCC(=O)NC6=O)C7)CC5)CC4(F)F)sc23)cc(OC)c1CN(C)C` (stereo not shown) [Compound D148], the DC50 was above 1000 nM.
As for `COc1cc(-c2cn(C)c(=O)c3cc(C(=O)NC4CC5(CCN(c6ccc7c(c6)C(=O)N(C6CCC(=O)NC6=O)C7)CC5)C4)sc23)cc(OC)c1CN(C)C` (stereo not shown) [Compound D149], the DC50 is below 10 nM.
As for `COc1cc(-c2cn(C)c(=O)c3cc(C(=O)NC4CCN(C5CCN(c6ccc7c(c6)C(=O)N(C6CCC(=O)NC6=O)C7)CC5)CC4)sc23)cc(OC)c1CN(C)C` (stereo not shown) [Compound D150], the DC50 was below 10 nM.
For the compound `COc1cc(-c2cn(C)c(=O)c3cc(C(=O)N[C@H]4CCN(c5ccc6c(c5)CN(C5CCC(=O)NC5=O)C6=O)CC4(F)F)sc23)cc(OC)c1CN(C)C` (stereo partly shown) [Compound D151], the DC50 is below 10 nM.
For the compound `COc1cc(-c2cn(C)c(=O)c3cc(C(=O)N[C@H]4CCN(c5ccc6c(c5)C(=O)N(C5CCC(=O)NC5=O)C6)CC4(F)F)sc23)cc(OC)c1CN(C)C` (stereo partly shown) [Compound D152], the DC50 is below 10 nM.
Turning to `COc1cc(-c2c(C)n(C)c(=O)c3ccsc23)cc(OC)c1CN1CCC(CN2CCC3(CC2)CN(c2ccc4c(c2)C(=O)N(C2CCC(=O)NC2=O)C4)C3)CC1` (stereo not shown) [Compound D153], the DC50 is below 10 nM.
On to `COc1cc(-c2cn(C)c(=O)c3cc(C(=O)N[C@@H]4CCN(c5ccc6c(c5)CN(C5CCC(=O)NC5=O)C6=O)CC4(F)F)sc23)cc(OC)c1CN(C)C` (stereo partly shown) [Compound D155], for which the DC50 was below 10 nM.

The values above are taken from US12686687B2, “Compounds and uses thereof” (Foghorn Therapeutics Inc., priority 2019, dated 2026).
